# According to US20240050574A1, “IONIZABLE LIPIDS” (eTheRNA immunotherapies NV, priority 2020, published 2024):
# Legend:
# [1] = mRNA encapsulation efficiency by Ribogreen RNA assay; type: physicochemical; conditions: for % encap: eGFP mRNA; for E.E. (encapsulation efficiency): N/P 10
# Protocol: Lipid based nanoparticles are produced by microfluidic mixing of an mRNA solution in sodium acetate buffer (100 mM, pH4) and lipid solution in a 2:1 volume ratio at a speed of 9 mL/min using the NanoAssemblr Benchtop (Precision Nanosystems). The lipid solution contained a mixture of the ionizable lipid of interest, DSPC, DOPC or DOPE (Avanti), Cholesterol (Sigma) and DMG-PEG2000 (Sunbright GM-020, NOF corporation. The 4 lipids were mixed at 6 different molar ratios. LNPs were dialyzed against TBS (10000 times more TBS volume than LNP volume) using slide-a-lyzer dialysis cassettes (20K MWCO, 3 mL, ThermoFisher). Size, polydispersity and zeta potential were measured with a Zetasizer Nano (Malvern). mRNA encapsulation was measured by standard Ribogreen RNA assay (Invitrogen). […]
# (§1) LNP formulations were prepared using a modified procedure of a method previously described for siRNA LNP synthesis. All formulations were prepared in a sterile manner with a N/P ratio of 10. All lipid components were dissolved in ethanol at molar ratios of 50:10:38.5:1.5 mol % (ionizable lipid/DSPC/Cholesterol/DMG-PEG2000). DSPC, Cholesterol and DMG-PEG2000 were purchased from Avanti Polar Lipids (Alabaster, Alabama, USA), while the Ionizable lipids are synthesized in-house. The final lipid concentration in ethanol was fixed at 10 mg/mL. E7 mRNA was dissolved in 100 mM acetate buffer (Sigma Aldrich, Saint-Louis, Missouri, USA) pH 4. The ethanol and aqueous phase were combined using a microfluidic mixer (NanoAssemblr® BenchTop (Precision Nanosystems, Vancouver, BC) in a 2:1 (aqueous:ethanol) ratio. Formulations were dialysed afterwards against 1× Sterile TBS pH 7.4 (Sigma Aldrich, Saint-Louis, Missouri, USA) using Slide-A-Lyzer® dialysis cassettes with a MWCO of 20.000 Da (Thermo Scientific, Massachusetts, USA) for 18 hours. Afterwards, the purified formulations were concentrated using Amicon ultra centrifugal filters (EMD Millipore, Massachusetts, USA). Finally, the exact concentration and E.E. % was determined through a Ribogreen Assay prior to final dilution with TBS (100 μg/mL E7 mRNA per formulation. All formulations were characterized for size and PDI using Dynamic Light Scattering Zetasizer Nano-ZS (Malvern Pananlytical Ltd., Malvern, UK) and stored afterwards at 4° C. The physico-chemical characteristics of each formulation can be found in Table 5.
# [2] = LNP size and polydispersity index by Dynamic Light Scattering (Malvern Zetasizer); type: physicochemical
# [3] = as above; type: physicochemical; conditions: N/P 10
# Protocol: Lipid based nanoparticles are produced by microfluidic mixing of an mRNA solution in sodium acetate buffer (100 mM, pH4) and lipid solution in a 2:1 volume ratio at a speed of 9 mL/min using the NanoAssemblr Benchtop (Precision Nanosystems). The lipid solution contained a mixture of the ionizable lipid of interest, DSPC, DOPC or DOPE (Avanti), Cholesterol (Sigma) and DMG-PEG2000 (Sunbright GM-020, NOF corporation. The 4 lipids were mixed at 6 different molar ratios. LNPs were dialyzed against TBS (10000 times more TBS volume than LNP volume) using slide-a-lyzer dialysis cassettes (20K MWCO, 3 mL, ThermoFisher). Size, polydispersity and zeta potential were measured with a Zetasizer Nano (Malvern). mRNA encapsulation was measured by standard Ribogreen RNA assay (Invitrogen).
# Size and Poly Dispersity Index were assessed by Dynamic Light Scattering (DLS) on a Malvern Zetasizer. MC-3 is the ionizable lipid used in Onpattro and is considered the state-of-the art.
# as §1
# [4] = Body weight after intratumoral LNP administration (CT26 model); type: in vivo, Balb/c mice; conditions: after intratumoral administration of 10 μg mRNA LNP
# Protocol: Fluc mRNA expression in tumor and liver was assessed at 6 an 24 hours post injection. By injecting mice peritoneally with D-luciferin (Promega), bioluminescence can be measured through in vivo imaging (IVIS Spectrum System). Bioluminescence is generated through an oxidation reaction which occurs between the enzyme luciferase derived from the firefly mRNA encapsulated in the LNP and its substrate D-luciferin. The Living Image Software (PerkinElmer) was used to specify tumor and liver ‘region of interests (ROIs) after which the average radiance (p/s/cm^2/sr) was calculated within these ROIs. To monitor tolerability of different LNP types used, bodyweight at 6 and 24 hours post injection was compared to baseline bodyweight at day of randomization.
# Balb/c mice were subcutaneously inoculated with CT26 tumor cells. When tumors reached a mean volume of 50-100 mm^3, tumors were injected with the respective mRNA LNPs (10 μg mRNA; 20 μl volume; TBS buffer) or with control buffer.
# [5] = Body weight after intratumoral LNP administration (B16F10 model); type: in vivo, C57/BL6 mice; conditions: B16F10 model (Example 2.5); after intratumoral administration of 10 μg mRNA LNP
# [6] = Table 3, LNP ionizable lipid/phospholipid/cholesterol/DMG-PEG2000 about 50/10/38.5/1.5, DOPE, except MC-3 with DSPC
# [7] = Table 3, LNP ionizable lipid/phospholipid/cholesterol/DMG-PEG2000 about 50/10/38.5/1.5, DOPE, except MC-3 with DSPC, eGFP mRNA
# [8] = Table 3, LNP ionizable lipid/phospholipid/cholesterol/DMG-PEG2000 about 50/10/38.5/1.5, DOPE, except MC-3 with DSPC, eGFP mRNA, in nm (unit assumed)
# [9] = Table 5, ionizable lipid/DSPC/Chol/DMG-PEG2000 50/10/38.5/1.5 mol %, E7 mRNA
# [10] = Table 2, LNP ionizable lipid/DOPE/cholesterol/DMG-PEG2000 about 50/10/38.5/1.5
# [11] = Table 2, LNP ionizable lipid/DOPE/cholesterol/DMG-PEG2000 about 50/10/38.5/1.5, eGFP mRNA
# [12] = Table 2, LNP ionizable lipid/DOPE/cholesterol/DMG-PEG2000 about 50/10/38.5/1.5, eGFP mRNA, mRNA/ionizable lipid molar ratio 1/10, in nm (unit assumed)
# [13] = Table 7, Ratio 1: 50/10/38.5/1.5 mol % ionizable lipid/DSPC (SS-EC: DOPE)/Chol/DMG-PEG2000
# [14] = Table 6 (Example 4, HA mRNA), ionizable lipid/DSPC/Chol/DMG-PEG2000 50/10/38.5/1.5 mol %
# [15] = Table 6 (Example 4, HA mRNA), ionizable lipid/DSPC/Chol/DMG-PEG2000 50/10/38.5/1.5 mol %, N/P 10
SMILES,"% encap [1, 6]","PDI [2, 7]","size [2, 8]","% encap [1, 10]","PDI [2, 11]","size [2, 12]",further results
CCCCCCCC/C=C\CCCCCCCC(=O)OCC(CNC(=O)OCCOCCOC(=O)NCCCN1CCCCC1CC)OC(=O)CCCCCCC/C=C\CCCCCCCC (centres unmarked) [E-Ac6e-DOg],100%,0.241,67.3,–,–,–,–
CCCCCCCC/C=C\CCCCCCCC(=O)OCC(CNC(=O)OCCOCCOC(=O)NCCN1CCCCCC1)OC(=O)CCCCCCC/C=C\CCCCCCCC (centres unmarked) [E-Ac7-Dog],100%,0.258,93.05,–,–,–,–
CCCCCCCC/C=C\CCCCCCCC(=O)OCC(CNC(=O)OCCOCCOC(=O)NCCN(C)C)OC(=O)CCCCCCC/C=C\CCCCCCCC (centres unmarked) [E-Adm-Dog],100%,0.217,59.56,–,–,–,–
CCCCCCCC/C=C\CCCCCCCC(=O)OCC(CNC(=O)OCCOC(C)(C)OCCOC(=O)NCCCN1CCCCC1CC)OC(=O)CCCCCCC/C=C\CCCCCCCC (centres unmarked) [K-Ac6e-DOg],95%,0.268,75.8,–,–,–,–
CCCCCCCC/C=C\CCCCCCCC(=O)OCC(CNC(=O)OCCOC(C)(C)OCCOC(=O)NCCN1CCCCCC1)OC(=O)CCCCCCC/C=C\CCCCCCCC (centres unmarked) [K-Ac7-DOg],93%,0.108,62.26,–,–,–,"PDI [3, 9]: 0.130; size [3, 9]: 164.8 nm; E.E. (encapsulation efficiency) [1, 9]: 49%"
CCCCCCCCCCCCN(CCCCCCCCCCCC)C(=O)OCCOC(C)(C)OCCOC(=O)NCCN(C(C)C)C(C)C [K-Adip-Dda],–,–,–,97%,0.292,78.59,–
CCCCCCCC/C=C\CCCCCCCC(=O)OCC(CNC(=O)OCCOC(C)(C)OCCOC(=O)NCCN(C)C)OC(=O)CCCCCCC/C=C\CCCCCCCC (centres unmarked) [K-Adm-DOg],94%,0.157,91.9,–,–,–,–
CCCCCCCCCCCCN(CCCCCCCCCCCC)C(=O)OCCOC(C)(C)OCCOC(=O)NCCN(C)C [K-Adm-Dda],–,–,–,100%,0.197,65.56,–
"CCCCC/C=C\C/C=C\CCCCCCCCC(CCCCCCCC/C=C\C/C=C\CCCCC)OC(=O)CCCN(C)C [MC3, reference compound]",94%,0.08,73.33,100%,0.103,73.14,"PDI [3, 9]: 0.106; size [3, 9]: 67.57 nm; PDI [3, 13]: 0.117; size [3, 13]: 74 nm; E.E. (encapsulation efficiency) [1, 9]: 99%; E.E. (encapsulation efficiency) [1, 13]: 96%; body weight [4]: significant body weight loss; body weight [5]: significant body weight loss"
CCCCCCCC/C=C\CCCCCCCC(=O)OCC(CNC(=O)OCCSSCCOC(=O)NCCCN1CCCCC1CC)OC(=O)CCCCCCC/C=C\CCCCCCCC (centres unmarked) [S-Ac6e-DOg],95%,0.311,63.86,–,–,–,"PDI [3, 9]: 0.266; size [3, 9]: 178.1 nm; E.E. (encapsulation efficiency) [1, 9]: 92%"
CCCCCCCCCCCCN(CCCCCCCCCCCC)C(=O)OCCSSCCOC(=O)NCCN1CCCCCC1 [S-Ac7-Dda],–,–,–,95%,0.223,74.28,–
CCCCCCCCCCCCCCCCCCN(CCCCCCCCCCCCCCCCCC)C(=O)OCCSSCCOC(=O)NCCN1CCCCCC1 [S-Ac7-Dsa],93%,0.158,89.44,99%,0.188,71.05,–
CCCCCCCCCCCCN(CCCCCCCCCCCC)C(=O)OCCSSCCOC(=O)NCCN(C(C)C)C(C)C [S-Adip-Dda],–,–,–,98%,0.197,86.95,–
CCCCCCCCCCCCCCCCCCN(CCCCCCCCCCCCCCCCCC)C(=O)OCCSSCCOC(=O)NCCN(C(C)C)C(C)C [S-Adip-Dsa],–,–,–,101%,0.153,70.9,–
CCCCCCCCC(CCCCCC)C(=O)OCCN(CCOC(=O)C(CCCCCC)CCCCCCCC)C(=O)OCCSSCCOC(=O)NCCN(C)C (centres unmarked) [S-Adm-DHDa],–,–,–,–,–,–,"E.E. (encapsulation efficiency) [1, 14]: 98%; PDI [2, 15]: 0.184; size [2, 15]: 79.075 nm"
CCCCCCCC/C=C\CCCCCCCC(=O)OCC(CNC(=O)OCCSSCCOC(=O)NCCN(C)C)OC(=O)CCCCCCC/C=C\CCCCCCCC (centres unmarked) [S-Adm-DOg],98%,0.3,68.08,–,–,–,–
CCCCCCCCCCCCN(CCCCCCCCCCCC)C(=O)OCCSSCCOC(=O)NCCN(C)C [S-Adm-Dda],–,–,–,100%,0.44,115.3,–
CCCCCCCCCCCCCCCCCCN(CCCCCCCCCCCCCCCCCC)C(=O)OCCSSCCOC(=O)NCCN(C)C [S-Adm-Dsa],100%,0.137,91.15,98%,0.042,82.11,–
CCCCCCCCC(CCCCCC)C(=O)OCCN(CCOC(=O)C(CCCCCC)CCCCCCCC)C(=O)OCCSSCCOC(=O)NCCN1CCN(C)CC1 (centres unmarked) [S-Amp-DHDa],–,–,–,–,–,–,"E.E. (encapsulation efficiency) [1, 14]: 99%; PDI [2, 15]: 0.1515; size [2, 15]: 106.3 nm"
